Measured values taken from patent publication US20230142090A1 (priority 2020, published 2023).
Entries after “also recorded” stand apart in the source; their conditions may differ. Like-named read-outs stand apart in the source and are kept apart here.

Key:
hilA expression = assay type: cell-based
HilC = molecular target: T1, HilC (Salmonella typhimurium, UniProt P0CL09); assay type: binding
T1 sequence (P0CL09 1-295): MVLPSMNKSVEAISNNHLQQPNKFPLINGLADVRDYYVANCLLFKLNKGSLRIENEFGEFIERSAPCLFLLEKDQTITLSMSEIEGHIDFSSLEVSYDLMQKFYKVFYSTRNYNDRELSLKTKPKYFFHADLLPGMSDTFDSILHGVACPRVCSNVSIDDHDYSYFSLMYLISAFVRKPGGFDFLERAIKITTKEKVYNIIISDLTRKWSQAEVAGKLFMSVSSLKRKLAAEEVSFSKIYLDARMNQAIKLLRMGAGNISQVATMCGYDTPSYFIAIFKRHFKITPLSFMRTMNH

[1] = tested on: Salmonella SPI1 expression (sicA-GFP); set-up: species or system C57BL/6 mice; details: mouse, in vivo
sopB expression = assay type: cell-based
cholera toxin = assay type: cell-based, V. cholerae Haiti and N16961
[2] = tested on: toxin co-regulated pili gene (tcpA); assay type: cell-based, Vibrio cholerae
HilD [3] = molecular target: T2, HilD (Salmonella typhimurium, UniProt P0CL08); assay type: binding
T2 construct: 6×His-NusA (followed by HRV 3C protease site) (N, cleaved yes); made in house; host or cells: E. coli BL21(DE3)
T2 sequence (P0CL08 1-309): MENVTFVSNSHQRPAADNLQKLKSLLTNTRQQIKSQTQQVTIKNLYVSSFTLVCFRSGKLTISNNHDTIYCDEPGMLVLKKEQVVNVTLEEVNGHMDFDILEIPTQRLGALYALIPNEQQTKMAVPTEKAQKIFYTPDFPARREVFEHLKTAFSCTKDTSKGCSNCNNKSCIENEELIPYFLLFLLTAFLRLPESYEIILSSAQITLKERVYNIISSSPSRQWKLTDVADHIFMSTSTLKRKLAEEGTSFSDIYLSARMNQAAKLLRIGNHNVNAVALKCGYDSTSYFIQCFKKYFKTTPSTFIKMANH

Salmonella = assay type: cell-based
[4] = tested on: cholera toxin genes ctxAB; assay type: cell-based, Vibrio cholerae C6706 EI Tor strain
HilD [5] = molecular target: HilD (Salmonella typhimurium, UniProt P0CL08); assay type: cell-based
RtsA = assay type: binding, Salmonella
[6] = tested on: HEp-2 cell invasion by Salmonella; assay type: cell-based
[7] = hilC and rtsA deleted, hilD under tetracycline-inducible promoter, 20 μM (FIG. 4C)

Compound: CCCCCCCCCCCCC/C=C\C(=O)O [c2-HDA, (Z)-hexadec-2-enoic acid]
- inhibition of hilA expression (hilA expression): 39%
- less potent in repressing hilA compared to the wild type (hilA expression): 39%
- reduction of hilA expression in the presence of only hilC (hilA expression): 20 fold
- reduction of hilA expression in the presence of only rtsA (hilA expression): 13 fold
- reduction of hilA expression, chain length comparison (hilA expression): 159 fold
- repression of hilA expression in the absence of Lon (hilA expression): continued to repress hilA expression
- repression of hilA in the presence of hilD only (hilA expression): 78 fold
- binding of HilC to the hilA promoter (HilC): preventing binding; also recorded: partially inhibited binding; also recorded: prevented binding; also recorded: did so partially
- reduction of the percentage of bacteria expressing SPI1 in the caecum [1]: 2 fold
- inhibition of sopB expression in Δlon and ΔhilE mutants (sopB expression): inhibited sopB expression in these mutants to the level observed in the wild type strain
- repression of sopB (sopB expression): 11 fold
- repression of sopB expression (sopB expression): 68 fold
- cholera toxin secretion / toxin amounts in the culture media (cholera toxin): reduced; also recorded: reduces cholera toxin secretion
- expression of tcpA [2]: represses expression
- binding of HilD to the hilA promoter (HilD [3]): prevented the binding; also recorded: partially inhibited binding; also recorded: completely inhibited; also recorded: did so partially
- effect on bacterial growth (Salmonella): did not impair bacterial growth
- concentrations at which effects on virulence gene expression were apparent [4]: ≥ 5 µM
- repression of ctxAB [4]: 20 fold
- repression of virulence gene expression compared to Virstatin [4]: repressed much more efficiently
- effect on HilD stability in the absence of Lon (HilD [5]): no effect on its stability
- binding of RtsA to the hilA promoter (RtsA): preventing binding; also recorded: partially inhibited binding; also recorded: prevented binding; also recorded: did so partially
- decrease of invasion of HEp-2 cells compared to untreated cultures [6]: 78%

Compound: CCCCCCC/C=C\C(=O)O [cis-2-decenoic acid, (Z)-dec-2-enoic acid]
- reduction of hilA expression, chain length comparison (hilA expression; FIG. 1F): 28%

Compound: CCCCCCCCC/C=C\C(=O)O [cis-2-dodecenoic acid, (Z)-dodec-2-enoic acid]
- potency in repressing invasion genes relative to c2-HDA (hilA expression): less potent in repressing invasion genes than c2-HDA
- reduction of hilA expression, chain length comparison (hilA expression; FIG. 1F): 3 fold

Compound: CCCCCCCCCCCCCCCCC/C=C\C(=O)OC [cis-2-eicosenoic acid methyl ester]
- repression of hilA expression by methyl ester (hilA expression): not to significantly repress hilA expression

Compound: CCCCCCCCCCCCCCCCC/C=C\C(=O)O [cis-2-eicosenoic acid, (Z)-icos-2-enoic acid]
- reduction of hilA expression, chain length comparison (hilA expression; FIG. 1F): 10 fold
- repression of hilA in the presence of hilD only (hilA expression; [7]): 3 fold

Compound: CCCCCCCCCCCCC/C=C\C(=O)OC [cis-2-hexadecenoic acid methyl ester]
- repression of hilA expression by methyl ester (hilA expression): not to significantly repress hilA expression

Compound: CC(C)CCCCCCC/C=C\C(=O)O [cis-11-methyl-2-dodecenoic acid]
- potency in repressing invasion genes relative to c2-HDA (hilA expression): less potent in repressing invasion genes than c2-HDA

Compound: CCCCCCCC/C=C\CCCCCCCC(=O)O [oleic acid, cis-9-octadecenoic acid, reference compound]
- repression of hilA expression (hilA expression; 5 μM, hilA::luxCDABE, wild type (FIG. 1A)): 1.3 fold
- repression of hilA in the presence of hilD only (hilA expression; [7]): 1.2 fold
- repression of ctxAB [4]: 1.3 fold
- decrease of invasion of HEp-2 cells compared to untreated cultures ([6]; overnight growth with 20 μM compound): 70%

Compound: CCCCCCCCCCCCCCCC(=O)O [palmitic acid, reference compound]
- repression of ctxAB [4]: no repressive effects

Compound: CCCCCCCCCCCCC/C=C/C(=O)O [trans-2-hexadecenoic acid, reference compound]
- fold less potent in repressing hilA than the cis-isomer (hilA expression; 20 μM fatty acids (FIG. 1A)): 31 fold

Compound: O=C(O)CCCN1C(=O)c2cccc3cccc(c23)C1=O [virstatin, reference compound]
- repression of ctxAB [4]: 1.2 fold
